Experimental data reported in PubChem BioAssay (NCI).
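A five-concentration, 48-hour dose response in 96-well plates underlies each endpoint, interpolated linearly between surrounding concentrations. Abbreviation: GI50, concentration required for 50% inhibition of growth. TGI: total growth inhibition.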

Experiments:
Experiment in all cases: NCI-60 cell line screen, 48 h
[1] = test system: MDA-MB-435
[2] = test system: UACC-62 melanoma
[3] = test system: UO-31 renal
[4] = test system: UACC-257 melanoma
[5] = test system: A498 renal
[6] = test system: M14 melanoma
[7] = test system: SK-MEL-5 melanoma
[8] = test system: SK-OV-3 ovarian
[9] = test system: PC-3 prostate
[10] = test system: NCI-H460 lung

`C=C1C(=O)O[C@H]2[C@H]1CC/C(COC(=O)NCCc1c[nH]c3ccc(OC)cc13)=C\CC[C@@]1(C)O[C@@H]21` was tested, and the GI50 [1] was 1.8 µM, the TGI [1] was 4.06 µM and the GI50 [2] was 1.72 µM. It also gave a TGI [2] of 3.77 µM, a GI50 [3] of 1.46 µM and a TGI [3] of 2.77 µM. For the same compound, the GI50 [4] was 1.52 µM, the TGI [4] was 3.3 µM and the GI50 [5] was 10.5 µM. For the same compound, the TGI [5] was 22.7 µM, the GI50 [6] was 1.62 µM and the TGI [6] was 3.51 µM. For the same compound, the GI50 [7] was 3.13 µM, the TGI [7] was 10.6 µM and the GI50 [8] was 14.1 µM. The TGI [8] was 27.2 µM, the GI50 [9] was 1.99 µM and the TGI [9] was 4.6 µM. The GI50 [10] was 6.49 µM and the TGI [10] was 25.2 µM.
Compound `CN1CCN(Cc2ccc(NC(=O)c3ccc(C#Cc4c(N)ncc5ccc(F)cc45)cc3)cc2C(F)(F)F)CC1` has a GI50 [1] of 0.874 µM, a TGI [1] of 1.59 µM and a GI50 [2] of 1 µM. It also gave a TGI [2] of 1.84 µM, a GI50 [3] of 0.967 µM and a TGI [3] of 2.26 µM. It also gave a GI50 [4] of 1.02 µM, a TGI [4] of 1.91 µM and a GI50 [5] of 1.79 µM. It also gave a TGI [5] of 9.71 µM, a GI50 [6] of 0.919 µM and a TGI [6] of 1.71 µM. The GI50 [7] was 0.871 µM, the TGI [7] was 1.58 µM and the GI50 [8] was 2.2 µM. For the same compound, the TGI [8] was 7.63 µM, the GI50 [9] was 0.834 µM and the TGI [9] was 1.61 µM. For the same compound, the GI50 [10] was 1.06 µM and the TGI [10] was 2.02 µM.
For `CO[C@@H]1CC(=O)C2(CC(=O)O[C@@H]2/C=C(\C)CCC=C(C)C)C[C@@H]1O` (stereo partly drawn), the GI50 [1] was 0.803 µM, the TGI [1] was 3.59 µM and the GI50 [2] was 0.812 µM. It also gave a TGI [2] of 1.71 µM, a GI50 [3] of 1.19 µM and a GI50 [4] of 0.883 µM. The TGI [4] was 2.52 µM, the GI50 [5] was 1.66 µM and the TGI [5] was 4.63 µM. The GI50 [6] was 0.709 µM, the TGI [6] was 1.55 µM and the GI50 [7] was 0.913 µM. It also gave a TGI [7] of 2.13 µM, a GI50 [8] of 1.62 µM and a TGI [8] of 5.3 µM. For the same compound, the GI50 [9] was 0.378 µM, the TGI [9] was 1.44 µM and the GI50 [10] was 0.744 µM.
`O=C(O)c1cc(N=Cc2ccccc2O)cc(C(=O)O)c1` gave a TGI [1] greater than 100 µM, a TGI [2] greater than 100 µM and a TGI [3] greater than 100 µM. The TGI [4] was greater than 100 µM, the TGI [5] was greater than 100 µM and the TGI [6] was greater than 100 µM. For the same compound, the TGI [7] was greater than 100 µM, the TGI [8] was greater than 100 µM and the TGI [9] was greater than 100 µM. For the same compound, the TGI [10] was greater than 100 µM.
Compound `COc1cccc2c1C(=O)c1c(O)c3c(c(O)c1C2=O)C[C@@](O)(C(=O)CO)C[C@@H]3OC1C[C@H](N)[C@H](O)[C@H](C)O1` (stereo partly drawn) has a GI50 [1] of 0.109 µM, a TGI [1] of 0.574 µM and a GI50 [2] of 0.0346 µM. It also gave a TGI [2] of 0.117 µM, a GI50 [3] of 0.152 µM and a TGI [3] of 1.14 µM. The GI50 [4] was 0.102 µM, the TGI [4] was 1.8 µM and the GI50 [5] was 0.0482 µM. For the same compound, the TGI [5] was 0.146 µM, the GI50 [6] was 0.0846 µM and the TGI [6] was 0.404 µM. It also gave a GI50 [7] of 0.0368 µM, a TGI [7] of 0.104 µM and a GI50 [8] of 0.107 µM. For the same compound, the TGI [8] was 10.9 µM, the GI50 [9] was 0.112 µM and the TGI [9] was 1.22 µM. The GI50 [10] was 0.005 µM and the TGI [10] was greater than 50 µM.
`Cc1ccc2c(c1)NC(=O)CC(c1ccccc1)=N2` gave a TGI [1] greater than 100 µM, a TGI [2] greater than 100 µM and a TGI [3] greater than 100 µM. It also gave a TGI [4] greater than 100 µM, a TGI [5] greater than 100 µM and a TGI [6] greater than 100 µM. The TGI [7] was greater than 100 µM, the TGI [8] was greater than 100 µM and the TGI [9] was greater than 100 µM. For the same compound, the TGI [10] was greater than 100 µM.
Work on `c1cn2cc(-c3ccc4cn[nH]c4c3)nc(Nc3ccc(N4CCOCC4)cc3)c2n1` yielded a GI50 [1] of 12.8 µM, a TGI [1] greater than 100 µM and a GI50 [2] of 11.8 µM. For the same compound, the TGI [2] was 37.8 µM, the GI50 [3] was 14.6 µM and the TGI [3] was 34.8 µM. For the same compound, the GI50 [4] was 16.4 µM, the TGI [4] was 44.8 µM and the GI50 [5] was 11.9 µM. The TGI [5] was 36.2 µM, the GI50 [6] was 15.1 µM and the TGI [6] was 62.3 µM. For the same compound, the GI50 [7] was 15.5 µM, the TGI [7] was 40.1 µM and the GI50 [8] was 6.43 µM. For the same compound, the TGI [8] was 19.6 µM, the GI50 [9] was 14.7 µM and the TGI [9] was 35.4 µM. For the same compound, the GI50 [10] was 7.59 µM and the TGI [10] was 25.4 µM.
`c1ccc(-c2nc(-c3ccccc3)c(-c3ccccc3)[nH]2)cc1` was tested, and the TGI [1] was greater than 100 µM, the TGI [2] was greater than 100 µM and the TGI [3] was greater than 100 µM. For the same compound, the TGI [4] was greater than 100 µM, the TGI [5] was greater than 100 µM and the TGI [6] was greater than 100 µM. The TGI [7] was greater than 100 µM, the TGI [8] was greater than 100 µM and the TGI [9] was greater than 100 µM. The TGI [10] was greater than 100 µM.
Compound `COc1cccc(/C=C/c2cnc3ccccc3n2)c1OC` has a TGI [1] greater than 100 µM, a TGI [2] of 91.2 µM and a TGI [3] greater than 100 µM. It also gave a TGI [4] greater than 100 µM, a TGI [5] greater than 100 µM and a TGI [6] greater than 100 µM. It also gave a TGI [7] of 58.3 µM, a TGI [8] greater than 100 µM and a TGI [9] greater than 100 µM. For the same compound, the TGI [10] was greater than 100 µM.
For `C=CC1CC12C(=O)C1OC2(C)C2C(=O)c3c(O)ccc(O)c3C(=O)C12` (stereo not drawn), the GI50 [1] was 4.44 µM, the TGI [1] was 11.1 µM and the GI50 [2] was 2.37 µM. It also gave a TGI [2] of 6.31 µM, a GI50 [3] of 7.83 µM and a TGI [3] of 25.6 µM. For the same compound, the GI50 [4] was 3.75 µM, the TGI [4] was 11.2 µM and the GI50 [5] was 3.89 µM. For the same compound, the TGI [5] was 13.4 µM, the GI50 [6] was 3.58 µM and the TGI [6] was 14.7 µM. For the same compound, the GI50 [7] was 1.86 µM, the TGI [7] was 4.97 µM and the GI50 [8] was 11.9 µM. The TGI [8] was 41.2 µM, the GI50 [9] was 4.72 µM and the TGI [9] was 15.3 µM. It also gave a GI50 [10] of 7.09 µM and a TGI [10] of 23.7 µM.
`O=C(CCl)N1c2ccccc2Sc2ccc3ccccc3c21` gave a GI50 [1] of 1.46 µM, a TGI [1] of 3.01 µM and a GI50 [2] of 1.53 µM. The TGI [2] was 2.88 µM, the GI50 [3] was 0.281 µM and the TGI [3] was 1.07 µM. It also gave a GI50 [4] of 1.48 µM, a TGI [4] of 2.87 µM and a GI50 [5] of 1.73 µM. For the same compound, the TGI [5] was 3.31 µM, the GI50 [6] was 1.66 µM and the TGI [6] was 3.43 µM. The GI50 [7] was 1.6 µM, the TGI [7] was 2.96 µM and the GI50 [8] was 1.79 µM. The TGI [8] was 3.18 µM, the GI50 [9] was 1.47 µM and the TGI [9] was 3.06 µM. The GI50 [10] was 1.89 µM and the TGI [10] was 3.82 µM.
In the case of `Cc1ccc(SC2=CC(=O)c3nc4ccccc4c4ccnc2c34)cc1`, the GI50 [1] is reported as 16.3 µM, the TGI [1] is reported as 31.2 µM and the GI50 [2] is reported as 43.3 µM. The TGI [2] was greater than 100 µM, the GI50 [3] was 15.5 µM and the TGI [3] was 29.7 µM. The GI50 [4] was 24.7 µM, the TGI [4] was 77.7 µM and the GI50 [5] was greater than 100 µM. The TGI [5] was greater than 100 µM, the GI50 [6] was 51.9 µM and the TGI [6] was greater than 100 µM. For the same compound, the GI50 [7] was 29.1 µM, the TGI [7] was greater than 66.8 µM and the GI50 [8] was greater than 100 µM. For the same compound, the TGI [8] was greater than 100 µM, the GI50 [9] was 22 µM and the TGI [9] was 71.2 µM. The GI50 [10] was 61.4 µM and the TGI [10] was greater than 100 µM.
For `COc1ccc(-n2c3c(c4c(CN5CCOCC5)c(O)ccc42)CCc2ccccc2C3=O)cc1`, the GI50 [1] was 12.1 µM, the TGI [1] was 47.8 µM and the GI50 [2] was greater than 100 µM. For the same compound, the TGI [2] was greater than 100 µM, the GI50 [3] was greater than 100 µM and the TGI [3] was greater than 100 µM. For the same compound, the GI50 [4] was greater than 100 µM, the TGI [4] was greater than 100 µM and the GI50 [5] was greater than 100 µM. It also gave a TGI [5] greater than 100 µM, a GI50 [6] greater than 100 µM and a TGI [6] greater than 100 µM. For the same compound, the GI50 [7] was 63.1 µM, the TGI [7] was greater than 100 µM and the GI50 [8] was greater than 100 µM. It also gave a TGI [8] greater than 100 µM, a GI50 [9] of 16.9 µM and a TGI [9] greater than 100 µM. It also gave a GI50 [10] greater than 100 µM and a TGI [10] greater than 100 µM.
In the case of `C=CC(=O)N[C@H]1CCOC[C@H]1Nc1ncc2cc(-c3c(Cl)c(OC)cc(OC)c3Cl)ccc2n1`, the GI50 [1] is reported as 15.3 µM, the TGI [1] is reported as 65.8 µM and the GI50 [2] is reported as 10.7 µM. It also gave a TGI [2] of 30.6 µM, a GI50 [3] of 4.28 µM and a TGI [3] greater than 100 µM. The GI50 [4] was 32.3 µM, the TGI [4] was greater than 100 µM and the GI50 [5] was 3.36 µM. For the same compound, the TGI [5] was 33.7 µM, the GI50 [6] was 11.8 µM and the TGI [6] was 40.2 µM. The GI50 [7] was 7.06 µM, the TGI [7] was 20.9 µM and the GI50 [8] was 26.9 µM. The TGI [8] was greater than 100 µM, the GI50 [9] was 14.8 µM and the TGI [9] was greater than 100 µM. The GI50 [10] was 13.8 µM and the TGI [10] was greater than 100 µM.
